Assay results taken from patent US8674064B2, “Immunogenic compositions against human progastrin peptides” (Onkologix Ltd, priority 2010, dated 2014).
Ends that are not written are not given here.

Assays:
huG17 [1] = assay: ELISA antibody responses in rabbits after immunization with peptide-carrier conjugates; format: in vivo; details: one administration, FIG. 2
Protocol: FIG. 2 depicts antibody responses in rabbits, as measured by ELISA, with one administration of a conjugate constructed with peptide 1 (hG18-TT) and peptide 2 (hG21-TT) of Examples 1 and Example 2 below, per A and B, respectively.
(§1) The conjugate may be characterized as to immunomimic peptide content by a number of methods known to those skilled in the art including weight gain, amino acid analysis, etc. Conjugates of peptides G18 and G21 to TT produced by these methods were determined by amino acid analysis to have 10-30 moles of peptide per 104-106 MW of TT and all were considered suitable as immunogens for immunization of test animals. Similarly DT conjugates of G18 and G21, were prepared in the same manner to determine ELISA titers using huG17 as the substrate for assay of antibody binding.
The inventors constructed conjugates comprising each of the G18 and G21 peptides, supra, linked to TT and DT as described in Examples 1 and 2. They then immunized four rabbits with the G18 immunogen (FIG. 2A) and four rabbits with the G21 immunogen (FIG. 2B).

huG17 [2] = assay: ELISA antibody responses in mice after immunization with peptide-carrier conjugates; format: in vivo; details: three immunizations, FIG. 1
Protocol: FIG. 1 depicts antibody responses in mice as measured by ELISA and are in response to three immunizations with immunogens comprising each of the conjugates hG18-TT, hG18-DT, hG21-TT and hG21-DT (A, B, C and D, respectively).
as §1
The inventors constructed conjugates comprising each of the G18 and G21 peptides listed in Example 1 linked to TT and DT, as described in Examples 1 and 2. They then immunized six mice with the peptide G18 immunogen (FIGS. 1A, B) and six mice with the peptide G21 immunogen (FIGS. 1C, D).

[3] = system: human gastric cancer cells (BCG-823); details: in vivo

Cys-pro-Pro-Pro-Pro-Ser-Ser-Gly-Trp-Met-Asp-nPhe-Gly-Arg-Arg-Ser-Ala-Glu-Asp-Glu-Asn (CPPPPSSGWMDFGRRSAEDEN; not fully specified (residues 2, 12); printed as Cys-pro-Pro-Pro-Pro-Ser-Ser-Gly-Trp-Met-Asp-nPhe-Gly-Arg-Arg-Ser-Ala-Glu-Asp-Glu-Asn) [Peptide 1]
effective: potency, eliciting of antibody and duration of the antibody responses induced (ELISA) (huG17 [1]) | potency, eliciting of antibody and duration of the antibody responses induced (ELISA) (huG17 [2]) | antibody responses effective in the presence of conventional gastric cancer chemotherapies [3] | inhibiting the growth of human gastric cancer cells [3]

pGlu-Gly-Pro-Trp-isoVal-Glu-Glu-Glu-Glu-Glu-Ala-Ser-Ser-Pro-Pro-Pro-pro-Cys (EGPWVEEEEEASSPPPPC; not fully specified (residues 1, 5, 17); printed as pGlu-Gly-Pro-Trp-isoVal-Glu-Glu-Glu-Glu-Glu-Ala-Ser-Ser-Pro-Pro-Pro-pro-Cys) [Peptide 2]
effective: potency, eliciting of antibody and duration of the antibody responses induced (ELISA) (huG17 [1]) | potency, eliciting of antibody and duration of the antibody responses induced (ELISA) (huG17 [2]) | antibody responses effective in the presence of conventional gastric cancer chemotherapies [3] | inhibiting the growth of human gastric cancer cells [3]
